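Where inhibition never reached the appropriate level, the endpoint shown equals the highest concentration tested. Otherwise, values were interpolated linearly from a five-concentration, 48-hour dose response in 96-well plates. GI50 marks 50% less growth.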 Calls of active or inactive are those of the source. Rule as the data show it: active = GI50 up to about 1.1 µM and inactive = higher.
Assays:
Experiment in all cases: NCI tumour cell line growth inhibition, 48 h
OVCAR-5 = system: OVCAR-5
ACHN = system: ACHN
HCT-116 = system: HCT-116
HCC 2998 = system: HCC 2998
NCI/ADR-RES = system: NCI/ADR-RES
SK-MEL-28 = system: SK-MEL-28
MDA-MB-435 = system: MDA-MB-435
EKVX = system: EKVX
786-0 = system: 786-0
HCT-15 = system: HCT-15
KM12 = system: KM12
OVCAR-8 = system: OVCAR-8
SF-268 = system: SF-268
DU-145 = system: DU-145
RXF 393 = system: RXF 393
T47D = system: T47D
MOLT-4 = system: MOLT-4
SN12C = system: SN12C
U-251 = system: U-251
UACC-257 = system: UACC-257

SMILES: N=C(N)N/N=C/c1c(-c2ccc([N+](=O)[O-])cc2)nc2sc(Cl)cn12
- GI50 (OVCAR-5): 1.21 µM (inactive)
- GI50 (ACHN): 1.27 µM (inactive)
- GI50 (HCT-116): 0.223 µM (active)
- GI50 (HCC 2998): 0.26 µM (active)
- GI50 (NCI/ADR-RES): 1.46 µM (inactive)
- GI50 (SK-MEL-28): 1.69 µM (inactive)
- GI50 (MDA-MB-435): 0.902 µM (active)
- GI50 (EKVX): 0.611 µM (active)
- GI50 (786-0): 0.212 µM (active)
- GI50 (HCT-15): 0.312 µM
- GI50 (KM12): 0.809 µM (active)
- GI50 (OVCAR-8): 0.479 µM (active)
- GI50 (SF-268): 1.42 µM (inactive)
- GI50 (DU-145): 1.11 µM (active)
- GI50 (RXF 393): 0.67 µM (active)
- GI50 (T47D): 0.92 µM (active)
- GI50 (MOLT-4): 0.247 µM (active)
- GI50 (SN12C): 1.31 µM (inactive)
- GI50 (U-251): 0.418 µM (active)

SMILES: O=CC1C(Cl)=Nc2nc3ccccc3n2C1c1ccccc1 (stereo unspecified)
- GI50 (OVCAR-5): 23.2 µM (inactive)
- GI50 (ACHN): 17.4 µM (inactive)
- GI50 (HCT-116): 22.1 µM (inactive)
- GI50 (HCC 2998): 18.2 µM (inactive)
- GI50 (NCI/ADR-RES): 24 µM (inactive)
- GI50 (SK-MEL-28): 14.3 µM (inactive)
- GI50 (UACC-257): 22.6 µM (inactive)
- GI50 (MDA-MB-435): 38.5 µM (inactive)
- GI50 (EKVX): 25.2 µM (inactive)
- GI50 (786-0): 15.6 µM (inactive)
- GI50 (HCT-15): 16.2 µM
- GI50 (KM12): 23.4 µM (inactive)
- GI50 (OVCAR-8): 21.4 µM (inactive)
- GI50 (SF-268): 16.8 µM (inactive)
- GI50 (DU-145): 16 µM (inactive)
- GI50 (RXF 393): 13.7 µM (inactive)
- GI50 (T47D): 17.1 µM (inactive)
- GI50 (SN12C): 20.7 µM (inactive)
- GI50 (U-251): 18.2 µM (inactive)

SMILES: COc1ccc(C2SC(=N)Nc3c2c(C)nn3C(=O)c2ccc(Cl)cc2)cc1 (stereo unspecified)
- GI50 (OVCAR-5): > 10 µM (inactive)
- GI50 (ACHN): > 10 µM (inactive)
- GI50 (HCT-116): > 10 µM (inactive)
- GI50 (HCC 2998): > 10 µM (inactive)
- GI50 (NCI/ADR-RES): > 10 µM (inactive)
- GI50 (SK-MEL-28): > 10 µM (inactive)
- GI50 (UACC-257): > 10 µM (inactive)
- GI50 (MDA-MB-435): > 10 µM (inactive)
- GI50 (EKVX): > 10 µM (inactive)
- GI50 (786-0): > 10 µM (inactive)
- GI50 (HCT-15): > 10 µM
- GI50 (KM12): > 10 µM (inactive)
- GI50 (OVCAR-8): > 10 µM (inactive)
- GI50 (SF-268): > 10 µM (inactive)
- GI50 (DU-145): > 10 µM (inactive)
- GI50 (RXF 393): > 10 µM (inactive)
- GI50 (T47D): > 10 µM (inactive)
- GI50 (MOLT-4): > 10 µM (inactive)
- GI50 (SN12C): > 10 µM (inactive)
- GI50 (U-251): > 10 µM (inactive)

SMILES: O=Cc1cc(C(=O)OCc2ccccc2)n(S(=O)(=O)c2ccccc2)c1
- GI50 (OVCAR-5): 18.6 µM (inactive)
- GI50 (ACHN): 15.6 µM (inactive)
- GI50 (HCT-116): 7.5 µM (inactive)
- GI50 (HCC 2998): 17 µM (inactive)
- GI50 (NCI/ADR-RES): 31 µM (inactive)
- GI50 (SK-MEL-28): 12.8 µM (inactive)
- GI50 (UACC-257): 24.7 µM (inactive)
- GI50 (MDA-MB-435): 2.29 µM (inactive)
- GI50 (EKVX): 23.3 µM (inactive)
- GI50 (786-0): 30.7 µM (inactive)
- GI50 (HCT-15): 11.1 µM
- GI50 (KM12): 13.4 µM (inactive)
- GI50 (OVCAR-8): 31.9 µM (inactive)
- GI50 (SF-268): 21.1 µM (inactive)
- GI50 (DU-145): 37 µM (inactive)
- GI50 (RXF 393): 33.7 µM (inactive)
- GI50 (T47D): 30.5 µM (inactive)
- GI50 (MOLT-4): 23 µM (inactive)
- GI50 (SN12C): 26.3 µM (inactive)

SMILES: CCc1ccc2c(c1)/C(=C1/Nc3ccccc3C1=O)C(=O)N2
- GI50 (OVCAR-5): 44.9 µM (inactive)
- GI50 (ACHN): 5.66 µM (inactive)
- GI50 (HCT-116): 7.43 µM (inactive)
- GI50 (HCC 2998): 15.7 µM (inactive)
- GI50 (NCI/ADR-RES): 28.7 µM (inactive)
- GI50 (SK-MEL-28): 96.6 µM (inactive)
- GI50 (UACC-257): 30.5 µM (inactive)
- GI50 (MDA-MB-435): 25.5 µM (inactive)
- GI50 (EKVX): 5.36 µM (inactive)
- GI50 (786-0): 5.78 µM (inactive)
- GI50 (HCT-15): 31.7 µM
- GI50 (KM12): 0.428 µM (active)
- GI50 (OVCAR-8): 7.46 µM (inactive)
- GI50 (SF-268): 19.6 µM (inactive)
- GI50 (DU-145): 41.3 µM (inactive)
- GI50 (RXF 393): 15.1 µM (inactive)
- GI50 (T47D): 4.65 µM (inactive)
- GI50 (MOLT-4): 19.2 µM (inactive)
- GI50 (SN12C): 68.2 µM (inactive)
- GI50 (U-251): 13.5 µM (inactive)

SMILES: COc1ccc([C@@]23OC[C@@H]4[C@@H](OC[C@@H]42)c2cc(OC)c(OC)cc23)cc1OC
- GI50 (OVCAR-5): > 100 µM (inactive)
- GI50 (ACHN): > 100 µM (inactive)
- GI50 (HCT-116): > 100 µM (inactive)
- GI50 (HCC 2998): > 100 µM (inactive)
- GI50 (NCI/ADR-RES): > 100 µM (inactive)
- GI50 (SK-MEL-28): > 100 µM (inactive)
- GI50 (MDA-MB-435): > 100 µM (inactive)
- GI50 (EKVX): > 100 µM (inactive)
- GI50 (786-0): > 100 µM (inactive)
- GI50 (HCT-15): > 100 µM
- GI50 (KM12): > 100 µM (inactive)
- GI50 (DU-145): > 100 µM (inactive)
- GI50 (RXF 393): > 100 µM (inactive)
- GI50 (T47D): > 100 µM (inactive)
- GI50 (MOLT-4): > 100 µM (inactive)
- GI50 (U-251): > 100 µM (inactive)

SMILES: CN(C)CCCSc1nc2ccccc2[nH]1
- GI50 (OVCAR-5): > 100 µM (inactive)
- GI50 (ACHN): > 100 µM (inactive)
- GI50 (HCT-116): > 100 µM (inactive)
- GI50 (HCC 2998): > 100 µM (inactive)
- GI50 (NCI/ADR-RES): > 100 µM (inactive)
- GI50 (SK-MEL-28): > 100 µM (inactive)
- GI50 (UACC-257): > 100 µM (inactive)
- GI50 (MDA-MB-435): > 100 µM (inactive)
- GI50 (EKVX): > 100 µM (inactive)
- GI50 (786-0): > 100 µM (inactive)
- GI50 (HCT-15): > 100 µM
- GI50 (KM12): > 100 µM (inactive)
- GI50 (OVCAR-8): > 100 µM (inactive)
- GI50 (SF-268): > 100 µM (inactive)
- GI50 (DU-145): > 100 µM (inactive)
- GI50 (RXF 393): > 100 µM (inactive)
- GI50 (T47D): > 100 µM (inactive)
- GI50 (SN12C): > 100 µM (inactive)
- GI50 (U-251): > 100 µM (inactive)

SMILES: COc1ccc(C2=C(Cl)C(=O)O/C2=C\c2ccc(OC)c(Br)c2)cc1Cl
- GI50 (OVCAR-5): 43.5 µM (inactive)
- GI50 (ACHN): 16.3 µM (inactive)
- GI50 (HCT-116): 23.5 µM (inactive)
- GI50 (HCC 2998): 57.9 µM (inactive)
- GI50 (NCI/ADR-RES): 37.8 µM (inactive)
- GI50 (SK-MEL-28): > 100 µM (inactive)
- GI50 (UACC-257): > 100 µM (inactive)
- GI50 (MDA-MB-435): > 100 µM (inactive)
- GI50 (EKVX): 31.6 µM (inactive)
- GI50 (786-0): 17.2 µM (inactive)
- GI50 (HCT-15): 55.2 µM
- GI50 (KM12): > 100 µM (inactive)
- GI50 (OVCAR-8): 22.7 µM (inactive)
- GI50 (SF-268): 16.5 µM (inactive)
- GI50 (DU-145): 74.6 µM (inactive)
- GI50 (RXF 393): 18.3 µM (inactive)
- GI50 (T47D): 58.9 µM (inactive)
- GI50 (MOLT-4): 41.5 µM (inactive)
- GI50 (U-251): 14.1 µM (inactive)

From ChEMBL document CHEMBL1201862, “PubChem BioAssay data set” (2004)
